Test results reported in PMC12391391, “The balance between B55α and Greatwall expression levels predicts sensitivity to Greatwall inhibition in cancer cells” (Nature Communications, 2025).

Assays:
physchem = assay: physchem; parameters: aqueous solubility at pH 7.0; conditions: pH 7.0; buffer pH 7.0; aqueous buffer pH 7.0
Excerpt: We selected compound 1 as the lead exemplar of cluster 3 and leveraged it as a foundation for subsequent drug development (Fig. 1a). Structure-activity relationship studies and pharmacokinetic profiling produced several derivative molecules, of which compound 21 provided the best combination of outstanding inhibitory potential, low clearance in mouse microsomes and acceptable solubility (Fig. 1a–c and Supplementary Tables 1–4). […] This assessment was supported by structural modelling of the interaction between compound 21 and the active site of GWL (Fig. 1d). In further support of its GWL-targeting properties, compound 21 diminished the phosphorylation of the canonical GWL substrate ENSA(S67) in Xenopus laevis cytostatic factor (CSF) egg extract (Supplementary Fig. 2). Having satisfied the criteria of prospective GWL inhibitor, the racemic compound 21 was registered as UOS-00054604 and, for the remainder of the manuscript, is referred to as C-604.

CDK1/cyclinB = CDK1/cyclinB (Homo sapiens, UniProt P06493); assay: biochemical; parameters: CDK1/cyclin B and off-target kinase inhibition assay
Chain of CDK1/cyclinB (P06493 whole entry): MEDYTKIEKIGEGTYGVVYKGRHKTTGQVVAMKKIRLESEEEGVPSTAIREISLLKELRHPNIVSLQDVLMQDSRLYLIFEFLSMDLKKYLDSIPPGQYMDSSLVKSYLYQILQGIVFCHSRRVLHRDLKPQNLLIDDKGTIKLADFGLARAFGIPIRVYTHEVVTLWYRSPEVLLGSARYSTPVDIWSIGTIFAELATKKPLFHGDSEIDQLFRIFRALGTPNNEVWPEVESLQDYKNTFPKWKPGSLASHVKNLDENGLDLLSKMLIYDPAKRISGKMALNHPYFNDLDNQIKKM
Chain of CDK1/cyclinB (P14635 whole entry partner): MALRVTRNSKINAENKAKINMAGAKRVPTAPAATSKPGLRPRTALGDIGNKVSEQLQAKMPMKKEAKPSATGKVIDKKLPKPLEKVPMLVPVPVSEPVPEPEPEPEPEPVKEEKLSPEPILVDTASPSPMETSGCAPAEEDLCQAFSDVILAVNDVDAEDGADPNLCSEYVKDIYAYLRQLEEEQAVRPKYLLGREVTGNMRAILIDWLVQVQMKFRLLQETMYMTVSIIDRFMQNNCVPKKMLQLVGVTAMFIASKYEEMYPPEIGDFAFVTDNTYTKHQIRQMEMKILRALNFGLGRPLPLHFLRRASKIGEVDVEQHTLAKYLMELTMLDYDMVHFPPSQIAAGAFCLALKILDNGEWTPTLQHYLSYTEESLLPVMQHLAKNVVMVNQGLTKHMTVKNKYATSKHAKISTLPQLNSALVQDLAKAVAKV

[1] = biological target: T1, Greatwall kinase (GWL, MASTL) (Homo sapiens, UniProt Q96GX5, K72M); assay: HTRF kinase assay with purified full-length GWL (K72M) and ENSA; format: biochemical
T1 construct: full-length
T1 sequence (Q96GX5 1-879 K72M): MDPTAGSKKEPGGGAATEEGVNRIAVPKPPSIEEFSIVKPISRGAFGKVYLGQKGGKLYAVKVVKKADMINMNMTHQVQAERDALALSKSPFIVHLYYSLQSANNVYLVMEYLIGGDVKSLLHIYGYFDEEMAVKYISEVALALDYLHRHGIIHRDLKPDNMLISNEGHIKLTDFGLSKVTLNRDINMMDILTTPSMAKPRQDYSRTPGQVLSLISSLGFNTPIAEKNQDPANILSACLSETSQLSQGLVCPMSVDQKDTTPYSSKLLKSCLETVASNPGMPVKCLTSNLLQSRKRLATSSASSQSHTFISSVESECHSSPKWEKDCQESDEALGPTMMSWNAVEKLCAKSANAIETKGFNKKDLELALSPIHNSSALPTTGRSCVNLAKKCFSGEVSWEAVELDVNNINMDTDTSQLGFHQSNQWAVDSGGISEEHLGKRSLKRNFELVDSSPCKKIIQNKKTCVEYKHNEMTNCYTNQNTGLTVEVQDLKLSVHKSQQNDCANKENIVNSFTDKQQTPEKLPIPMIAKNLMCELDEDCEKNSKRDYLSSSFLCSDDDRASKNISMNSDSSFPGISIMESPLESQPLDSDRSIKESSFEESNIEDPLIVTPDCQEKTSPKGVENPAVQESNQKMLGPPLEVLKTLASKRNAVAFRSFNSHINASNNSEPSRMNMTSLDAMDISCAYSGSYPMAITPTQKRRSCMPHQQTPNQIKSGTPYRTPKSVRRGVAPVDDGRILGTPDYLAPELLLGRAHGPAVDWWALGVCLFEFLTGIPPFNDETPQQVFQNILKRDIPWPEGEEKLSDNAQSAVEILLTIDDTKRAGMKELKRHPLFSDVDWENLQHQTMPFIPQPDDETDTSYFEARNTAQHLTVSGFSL

MELK = MELK (Homo sapiens, UniProt Q14680); assay: biochemical; parameters: LanthaScreen kinase activity assay (Thermo Fisher), dose-dependent inhibition by C-604; conditions: read-out: IC50 (C-604)
Chain of MELK (Q14680 whole entry): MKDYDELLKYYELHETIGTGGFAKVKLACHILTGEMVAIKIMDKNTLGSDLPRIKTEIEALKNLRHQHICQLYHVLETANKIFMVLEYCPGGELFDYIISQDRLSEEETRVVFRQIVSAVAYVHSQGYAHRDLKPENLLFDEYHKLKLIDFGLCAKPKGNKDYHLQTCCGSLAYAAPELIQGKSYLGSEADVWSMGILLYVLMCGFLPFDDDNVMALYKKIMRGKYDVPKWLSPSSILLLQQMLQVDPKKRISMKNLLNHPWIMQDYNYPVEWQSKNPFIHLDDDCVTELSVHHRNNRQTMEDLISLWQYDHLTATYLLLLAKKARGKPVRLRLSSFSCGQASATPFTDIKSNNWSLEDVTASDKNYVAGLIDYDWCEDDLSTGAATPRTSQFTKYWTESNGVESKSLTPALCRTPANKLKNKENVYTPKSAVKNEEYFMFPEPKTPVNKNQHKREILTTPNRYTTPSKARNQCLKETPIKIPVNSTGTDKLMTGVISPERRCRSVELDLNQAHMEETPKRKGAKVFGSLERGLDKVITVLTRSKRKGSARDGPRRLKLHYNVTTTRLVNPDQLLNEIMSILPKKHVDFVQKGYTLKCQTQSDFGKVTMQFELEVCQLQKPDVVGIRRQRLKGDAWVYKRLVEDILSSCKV
Method: (§1) To identify potential C-604 off-targets, we utilised a commercially available off-target screening service (Thermo Fisher Scientific) to assess the impact of C-604 on the in vitro activity of 100 human kinases (Supplementary Fig. 8a). Out of 100 tested targets, C-604 (1 µM) inhibited GWL (inhibition 95%) and an additional 10 kinases (inhibition ≥ 80%). […] The in vitro off-target effects of compound C-604 were determined by assessing its inhibitory potential in a panel of 100 human kinases using the LanthaScreen Kinase Activity Assay (Thermo Fisher Scientific).

MARK3 = MARK3 (Homo sapiens, UniProt P27448); assay: biochemical; parameters: LanthaScreen kinase activity assay (Thermo Fisher), dose-dependent inhibition by C-604; conditions: read-out: IC50 (C-604)
Chain of MARK3 (P27448 whole entry): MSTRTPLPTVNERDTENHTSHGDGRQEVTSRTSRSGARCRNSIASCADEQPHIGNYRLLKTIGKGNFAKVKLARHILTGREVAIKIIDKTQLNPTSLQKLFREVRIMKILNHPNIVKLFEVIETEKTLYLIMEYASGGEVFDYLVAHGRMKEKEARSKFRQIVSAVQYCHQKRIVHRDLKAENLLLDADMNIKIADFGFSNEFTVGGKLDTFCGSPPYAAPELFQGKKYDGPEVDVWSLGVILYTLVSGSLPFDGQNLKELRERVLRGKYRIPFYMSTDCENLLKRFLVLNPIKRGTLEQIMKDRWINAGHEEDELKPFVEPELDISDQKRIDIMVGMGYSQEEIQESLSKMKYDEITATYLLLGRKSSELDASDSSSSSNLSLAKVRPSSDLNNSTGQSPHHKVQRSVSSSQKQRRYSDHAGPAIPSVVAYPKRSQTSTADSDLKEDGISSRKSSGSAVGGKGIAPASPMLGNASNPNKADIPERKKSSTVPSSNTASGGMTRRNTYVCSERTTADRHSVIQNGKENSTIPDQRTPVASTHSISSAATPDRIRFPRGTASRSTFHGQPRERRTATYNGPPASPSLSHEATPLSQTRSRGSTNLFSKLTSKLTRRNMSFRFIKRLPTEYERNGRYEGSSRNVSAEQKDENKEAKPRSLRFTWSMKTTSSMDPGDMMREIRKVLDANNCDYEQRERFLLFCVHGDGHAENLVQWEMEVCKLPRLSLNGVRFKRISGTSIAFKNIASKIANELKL
Method: as §1

MAP3K9 = MAP3K9 (Homo sapiens, UniProt P80192); assay: biochemical; parameters: LanthaScreen kinase activity assay (Thermo Fisher), dose-dependent inhibition by C-604; conditions: read-out: IC50 (C-604)
Chain of MAP3K9 (P80192 whole entry): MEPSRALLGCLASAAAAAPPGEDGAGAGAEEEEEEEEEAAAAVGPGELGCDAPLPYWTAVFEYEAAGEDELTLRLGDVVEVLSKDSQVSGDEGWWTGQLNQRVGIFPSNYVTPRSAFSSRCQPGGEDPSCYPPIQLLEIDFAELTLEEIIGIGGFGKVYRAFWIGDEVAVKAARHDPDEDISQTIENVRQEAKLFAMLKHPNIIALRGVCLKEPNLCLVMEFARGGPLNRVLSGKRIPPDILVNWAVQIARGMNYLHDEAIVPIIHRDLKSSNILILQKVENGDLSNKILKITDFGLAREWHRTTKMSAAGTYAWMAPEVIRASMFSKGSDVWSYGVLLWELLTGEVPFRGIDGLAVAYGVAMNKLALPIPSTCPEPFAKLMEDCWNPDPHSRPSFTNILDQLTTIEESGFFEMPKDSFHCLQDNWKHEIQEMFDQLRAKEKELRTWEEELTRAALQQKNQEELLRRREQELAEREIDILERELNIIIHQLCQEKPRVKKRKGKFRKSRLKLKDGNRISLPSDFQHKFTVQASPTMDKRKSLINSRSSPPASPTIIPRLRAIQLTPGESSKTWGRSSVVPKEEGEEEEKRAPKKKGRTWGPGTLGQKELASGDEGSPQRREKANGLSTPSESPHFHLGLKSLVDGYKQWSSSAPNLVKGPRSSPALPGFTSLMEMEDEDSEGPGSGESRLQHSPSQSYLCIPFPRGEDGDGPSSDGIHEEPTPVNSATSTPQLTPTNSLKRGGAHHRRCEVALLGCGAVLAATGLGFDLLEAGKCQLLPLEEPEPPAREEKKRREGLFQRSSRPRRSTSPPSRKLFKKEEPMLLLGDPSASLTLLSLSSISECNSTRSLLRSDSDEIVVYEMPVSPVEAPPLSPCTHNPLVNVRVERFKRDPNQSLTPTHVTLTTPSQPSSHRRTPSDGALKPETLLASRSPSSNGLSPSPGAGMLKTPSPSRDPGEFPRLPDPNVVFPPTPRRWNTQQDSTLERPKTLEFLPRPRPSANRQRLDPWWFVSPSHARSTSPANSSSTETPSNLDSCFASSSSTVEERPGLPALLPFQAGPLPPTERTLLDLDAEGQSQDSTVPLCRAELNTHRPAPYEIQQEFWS
Method: as §1

STK17A = biological target: T2, STK17A (Homo sapiens, UniProt Q9UEE5); assay: biochemical; parameters: LanthaScreen kinase activity assay (Thermo Fisher), dose-dependent inhibition by C-604; conditions: read-out: IC50 (C-604)
T2 sequence (Q9UEE5 1-414): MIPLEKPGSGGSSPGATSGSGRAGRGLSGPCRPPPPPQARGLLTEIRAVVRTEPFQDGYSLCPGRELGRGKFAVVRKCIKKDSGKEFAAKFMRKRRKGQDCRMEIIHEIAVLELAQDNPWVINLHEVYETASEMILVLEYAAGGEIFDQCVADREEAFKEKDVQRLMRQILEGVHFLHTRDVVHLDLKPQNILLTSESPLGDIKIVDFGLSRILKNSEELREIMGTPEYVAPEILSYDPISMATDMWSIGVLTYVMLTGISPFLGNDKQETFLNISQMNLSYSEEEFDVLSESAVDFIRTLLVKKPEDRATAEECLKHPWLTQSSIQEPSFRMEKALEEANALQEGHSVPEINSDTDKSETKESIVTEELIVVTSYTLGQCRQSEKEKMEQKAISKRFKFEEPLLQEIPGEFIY
Method: as §1

solubility (physchem): 72 µM | IC50 (CDK1/cyclinB): > 30000 nM | IC50 [1]: 9 ± 7.7 nM | IC50 (MELK): 16.9 nM | IC50 (MARK3): 480 nM | IC50 (MAP3K9): 29.3 nM | IC50 (STK17A): 154 nM
SMILES: CNC(=O)c1c[nH]c2ncc(-c3ccc(OCCN4CCC(c5ccccc5)C4)cc3)nc12 (racemic) [compound 21, C-604]
